Where “and” joins values, the source holds several entries; their conditions need not be identical. Equal entries are not always repeated.
Experiments:
[1] = system: human trabecular meshwork cell; assay: 86Rb efflux from human trabecular meshwork cells; type: cell-based
From the text: FIG. 3 depicts, in accordance with embodiments herein, effect of glybenclamide on the efflux of ^86Rb from human trabecular meshwork cell.
FIG. 4 depicts, in accordance with embodiments herein, effect of chlorpromazine on the efflux of ^86Rb from human trabecular meshwork cell.

rabbits = assay: Effect of KATP channel blockers and openers on intraocular pressure in rabbits; type: in vivo; details: 800 μg of blockers, within 1 hour
From the text: Tolbutamide, a well-known and world-wide clinically approved drug to treat Type II diabetes, was used as the prototype blocker of the KATP channel. […] Tolbutamide solution decreased IOP not only in glaucomatous patients, but also in patients with elevated IOP after cataract surgery.

[2] = system: sulfonylurea receptor in trabecular meshwork cells; assay: 3H-glibenclamide binding and displacement, bovine trabecular meshwork cells
Method: FIG. 1 depicts, in accordance with embodiments herein, binding of ^3H-glibenclamide to bovine trabecular meshwork cells (2.5×10^5 per 0.5 ml of reaction mixture) at various concentrations of ligand. Red: non-specific binding; green: specific binding. Shown is mean±SD.
(§1) FIG. 2 depicts, in accordance with embodiments herein, displacement of ^3H-glibenclamide bound to trabecular meshwork cells (green) and RIN-m5F cells (red) by tolbutamide.
Non-specific binding was determined as the residual binding in the presence of 20 μM non-labeled glibenclamide. After 2 hrs incubation, ^3H-bound glibenclamide was separated from free ^3H-glibenclamide on Whatman GF/F filters soaked in incubation buffer. Specific binding as calculated as the difference between binding in the absence and presence of non-labeled […] glibenclamide (FIG. 1).

[3] = system: ocular hypertensive patient; assay: Fluorophotometry of aqueous humor inflow and outflow facility; type: in vivo, human
Method: Thus, they investigated whether one drop of […] tolbutamide would affect aqueous dynamics using fluorophotometry to measure aqueous production and outflow.
Fluorophotometry. To define the mechanism of action of tolbutamide, measurements of aqueous dynamics were done on patient 2 (See FIG. 6). For this study TOP and rate of aqueous formation were measured at 9:00 A.M. The patient was asked to apply one drop of drug to the right eye at 9:15 A.M. and one at 10:00 P.M. for 3 days. On the morning of the fourth day TOP and rate of aqueous formation were again measured.
Facility of Outflow (C) was calculated after Goldman:
[formula] where IOPt is the intraocular pressure in mmHg at the time the rate of inflow is measured. Episcleral pressure for this patient was estimated at 9 mmHg.

[4] = system: patients with elevated IOP; assay: Effect of one drop of 0.4% tolbutamide on IOP in human subjects; type: in vivo; details: for effect on IOP: glaucomatous patients and patients with elevated IOP after cataract surgery (lens extraction)
Method: a. Effect of 1 drop of 0.4% tolbutamide. Three patients with elevated TOP, due to exfoliative glaucoma, to POAG and to the increase in TOP that occurs in some patients following lens extraction, were treated with one drop of 0.4% tolbutamide solution. TOP was measured at “0” time and at one hour intervals for 5 hours (when possible) by a nurse while the patient was in the hospital.

[5] = system: normal cynomologus monkeys; assay: Effect of tolbutamide on IOP of normal cynomologus monkeys; type: in vivo; details: for IOP 1 hour post-treatment OD(treated): ketamine anesthesia
Method: Effect of Tolbutamide on TOP of Normal Cynomologus Monkeys: Formulations of the KA channel inhibitor tolbutamidewere tested as a suspension and as a solution for its ability to lower intraocular pressure in normal cynomologus monkeys. For the suspension, 0.4% tolbutamide was prepared in NaCl/borate buffer (0.8 mg NaCl, 1.0 mg boric acid, pH 7.2, water to 1 ml; for the solution, 0.4% tolbutamide was solubilized in 0.25 M NaOH and added to 0.4% hypromellose (HPMC) and the pH adjusted to 6.7. Tonicity was adjusted to 300 mOSm with NaCl and preserved with 0.001% thimerosal. The suspension and solution were tested as follows: Monkeys were anesthetized with ketamine hydrochloride and the baseline IOP determined. One drop of drug was administered to the right eye and the IOP determined 1 hour later, while the animals were still under anesthesia; the left eye served as a control. Two animals for each treatment were used. The decrease in IOP in the untreated eye is the result of anesthesia.

patients = assay: Adverse ocular effects of tolbutamide eye drops
From the text: Specifically, patients were monitored for discomfort, ocular pain, tearing, photophobia, erythema, swelling, discharge and scaling, palpebral conjunctival inflammation, bulbar conjunctival inflammation; limbal inflammation, corneal epithelial changes and focal stromal infiltrates. Symptoms were classified as 0=normal; 1=mild; 2=moderate; and 3=severe.

glaucoma patients = assay: Extended twice-daily 0.4% tolbutamide treatment, IOP of glaucoma patients; type: in vivo, human
Method: FIG. 5 depicts, in accordance with embodiments herein, long-term effect of 0.4% tolbutamide treatment on IOP of a human subject. […] The bottles were color-coded and the patient was not aware of which bottle contained the drug and which contained the vehicle. The patient and the technician measuring the patient's IOP was not aware of which bottle contained the drug and which contained the vehicle
(§2) On days 1 through 5, IOP was measured at 8:00 A.M., 1 drop of 0.4% Tolbutamide suspended in buffered PBS (pH 6.7) was instilled to the right eye and IOP measured at the indicated times. A second drop was administered at 10:00 PM. All measurements and drug administrations were done in the hospital. The bottles were color-coded and the patient was not aware of which bottle contained the drug and which contained the vehicle. […]
b. Effect of 0.4% tolbutamide on human subjects for an extended time. To determine whether longer-term treatment with tolbutamide lowered TOP without any significant side effects, […] patient was treated with one drop of 0.4% tolbutamide twice daily (FIGS. 5-7) as shown in the figures. Vials containing drug and vehicle were color-coded by the manufacturing facility; the patient, the nurse and the investigator were not aware which vial contained the drug and which vial contained the vehicle.
as §2, with “hospital, since” for “hospital. The bottles were color-coded and”, “admitted for an unrelated condition.” for “not aware of which bottle contained the drug and which contained the vehicle.”

[6] = molecular target: T1, sulfonylurea receptor of RIN-m5F cells (Rattus norvegicus, UniProt Q09429); assay: 3H-glibenclamide displacement, RIN-m5F cells; type: binding; details: compared with bovine TM cells
T1 construct: displacement of ^3H-glibenclamide by tolbutamide in bovine trabecular meshwork cells and RIN-m5F cells; host or cells: RIN-m5F rat insulinoma cells
T1 sequence (Q09429 whole entry): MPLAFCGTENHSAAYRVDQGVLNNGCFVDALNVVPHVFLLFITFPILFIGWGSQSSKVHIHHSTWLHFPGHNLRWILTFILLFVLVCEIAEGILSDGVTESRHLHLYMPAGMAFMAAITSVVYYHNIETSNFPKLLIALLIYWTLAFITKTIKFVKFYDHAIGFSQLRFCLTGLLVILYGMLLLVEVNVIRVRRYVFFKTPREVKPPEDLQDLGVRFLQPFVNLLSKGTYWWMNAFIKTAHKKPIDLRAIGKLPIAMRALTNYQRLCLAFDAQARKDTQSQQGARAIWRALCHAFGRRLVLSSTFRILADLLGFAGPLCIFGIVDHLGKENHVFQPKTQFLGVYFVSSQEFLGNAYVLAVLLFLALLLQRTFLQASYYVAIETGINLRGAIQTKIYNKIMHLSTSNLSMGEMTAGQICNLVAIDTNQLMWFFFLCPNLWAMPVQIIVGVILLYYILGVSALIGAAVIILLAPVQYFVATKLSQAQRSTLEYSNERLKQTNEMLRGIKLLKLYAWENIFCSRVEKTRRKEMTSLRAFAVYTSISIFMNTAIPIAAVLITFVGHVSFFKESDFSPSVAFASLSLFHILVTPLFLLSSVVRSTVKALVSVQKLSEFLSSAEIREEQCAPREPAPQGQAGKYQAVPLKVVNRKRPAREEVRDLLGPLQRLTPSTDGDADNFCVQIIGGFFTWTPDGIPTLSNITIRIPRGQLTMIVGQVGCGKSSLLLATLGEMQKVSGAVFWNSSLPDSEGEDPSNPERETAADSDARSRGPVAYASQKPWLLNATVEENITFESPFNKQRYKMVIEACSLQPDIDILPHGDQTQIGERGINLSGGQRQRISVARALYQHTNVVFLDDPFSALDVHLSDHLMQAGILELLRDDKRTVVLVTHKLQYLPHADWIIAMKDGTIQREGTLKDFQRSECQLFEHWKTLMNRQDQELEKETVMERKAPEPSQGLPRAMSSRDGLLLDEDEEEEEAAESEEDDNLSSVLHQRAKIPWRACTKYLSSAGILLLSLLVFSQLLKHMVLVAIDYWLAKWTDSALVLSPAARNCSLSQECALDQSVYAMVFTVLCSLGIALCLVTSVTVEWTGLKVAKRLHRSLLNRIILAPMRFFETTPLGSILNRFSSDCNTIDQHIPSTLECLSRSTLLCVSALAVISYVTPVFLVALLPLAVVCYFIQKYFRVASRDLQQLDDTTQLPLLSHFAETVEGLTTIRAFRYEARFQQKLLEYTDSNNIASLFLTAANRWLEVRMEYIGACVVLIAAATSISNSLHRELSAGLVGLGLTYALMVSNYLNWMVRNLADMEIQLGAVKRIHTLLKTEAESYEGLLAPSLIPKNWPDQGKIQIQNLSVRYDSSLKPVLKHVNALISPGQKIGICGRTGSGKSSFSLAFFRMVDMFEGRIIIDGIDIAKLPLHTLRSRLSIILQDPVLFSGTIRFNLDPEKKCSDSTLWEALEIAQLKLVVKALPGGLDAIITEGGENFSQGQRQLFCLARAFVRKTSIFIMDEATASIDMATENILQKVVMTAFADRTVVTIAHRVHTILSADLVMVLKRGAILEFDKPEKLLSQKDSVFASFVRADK
T1 sequence (P70673 whole entry partner): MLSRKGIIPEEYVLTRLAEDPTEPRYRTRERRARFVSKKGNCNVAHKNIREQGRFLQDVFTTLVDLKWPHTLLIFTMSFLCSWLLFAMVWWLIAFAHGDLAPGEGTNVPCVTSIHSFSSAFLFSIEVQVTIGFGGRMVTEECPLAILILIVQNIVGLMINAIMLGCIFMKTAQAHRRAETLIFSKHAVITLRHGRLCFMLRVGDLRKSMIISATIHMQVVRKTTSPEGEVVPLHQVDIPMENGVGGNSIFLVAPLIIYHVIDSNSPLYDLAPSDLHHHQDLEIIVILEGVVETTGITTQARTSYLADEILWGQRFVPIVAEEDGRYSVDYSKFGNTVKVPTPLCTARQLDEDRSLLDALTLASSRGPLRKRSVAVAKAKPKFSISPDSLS
From the text: as §1

[7] = after 3 days, one drop of 0.5% solution to the eye twice daily
[8] = Patient 2, 0.4% in PBS pH 6.7 twice daily, Day 1 6:30 PM
[9] = Patient 2, 0.4% in PBS pH 6.7 twice daily, Day 2 4:00 PM
[10] = Patient 2, 0.4% in PBS pH 6.7 twice daily, Day 2 8:00 AM
[11] = Patient 2, 0.4% in PBS pH 6.7 twice daily, Day 2 8:00 PM
[12] = Patient 2, 0.4% in PBS pH 6.7 twice daily, Day 3 4:00 PM
[13] = Patient 2, 0.4% in PBS pH 6.7 twice daily, Day 3 8:00 AM
[14] = Patient 2, 0.4% in PBS pH 6.7 twice daily, Day 3 8:00 PM
[15] = Patient 2, 0.4% in PBS pH 6.7 twice daily, Day 4 4:00 PM
[16] = Patient 2, 0.4% in PBS pH 6.7 twice daily, Day 4 8:00 AM
[17] = Patient 2, 0.4% in PBS pH 6.7 twice daily, Day 4 8:00 PM
[18] = Patient 2, 0.4% in PBS pH 6.7 twice daily, Day 5 2:00 PM
[19] = Patient 2, 0.4% in PBS pH 6.7 twice daily, Day 5 8:00 AM

## CN(C)CCCN1c2ccccc2Sc2ccc(Cl)cc21 [Chlorpromazine, chlorpromazine]
[1]
  potassium efflux from trabecular meshwork cells as indicated by 86Rubidium efflux: inhibit potassium efflux
[1]; Homo sapiens, at 1 μM, dose dependent
  inhibition at 1 µM: 20%

## COc1ccc(Cl)cc1C(=O)NCCc1ccc(S(=O)(=O)NC(=O)NC2CCCCC2)cc1 [Glybenclamide, glibenclamide]
rabbits
  effect on intraocular pressure: decreased IOP
[2]; on ice, 2 hrs incubation
  binding of 3H-glibenclamide to trabecular meshwork cells: have a receptor for glybenclamide
[1]
  potassium efflux from trabecular meshwork cells as indicated by 86Rubidium efflux: inhibit potassium efflux
[1]; Homo sapiens, at 10 nM, dose dependent
  inhibition at 0.01 µM: 50%

## CCCCNC(=O)NS(=O)(=O)c1ccc(C)cc1 [Tolbutamide, tolbutamide]
rabbits
  effect on intraocular pressure: decreased IOP
[3]; 0.4%
  increase of aqueous production: 150%
  increase of outflow via the trabecular meshwork-Schlemm's canal complex: 350%
  net outflow increase: 200%
[3]; [7]
  increase of aqueous formation: approximately 150%
  increase of outflow via the trabecular meshwork/Schlemm's canal: 350%
[3]; patient 2, one drop right eye twice daily for 3 days, morning of fourth day, Pre-Treatment 1.9
  Inflow OD Post-treatment: 3.0 µL/min
[3]; patient 2, one drop right eye twice daily for 3 days, morning of fourth day, Pre-Treatment 22
  IOP OD Post-treatment: 15 mmHg
[3]; patient 2, one drop right eye twice daily for 3 days, calculated after Goldman, episcleral pressure 9 mmHg, Pre-Treatment 0.146
  Outflow Facility OD Post-treatment: 0.50 μl/min/mmHg
[4]; 0.4%
  IOP spike that occurs following cataract surgery: prevents the IOP spike
[4]; 0.4%, primary open angle glaucoma and exfoliative glaucoma patients
  lowering of intraocular pressure: 25-50%
[4]; Patient 1 Exfoliative Glaucoma of OD, OD, 2 hrs after one drop 0.4% solution, pre-treatment 48
  IOP: 44 mm of Hg
[4]; Patient 1 Exfoliative Glaucoma of OD, OD, 3 hrs after one drop 0.4% solution, pre-treatment 48
  IOP: 32 mm of Hg
[4]; Patient 1 Exfoliative Glaucoma of OD, OD, 4 hrs after one drop 0.4% solution, pre-treatment 48
  IOP: 30 mm of Hg
[4]; Patient 1 Exfoliative Glaucoma of OD, OD, 5 hrs after one drop 0.4% solution, pre-treatment 48
  IOP: 30 mm of Hg
[4]; Patient 1 Exfoliative Glaucoma of OD, OS, 2 hrs, pre-treatment 20
  IOP: 18 mm of Hg
[4]; Patient 1 Exfoliative Glaucoma of OD, OS, 3 hrs, pre-treatment 20
  IOP: 14 mm of Hg
[4]; Patient 1 Exfoliative Glaucoma of OD, OS, 4 hrs, pre-treatment 20
  IOP: 14 mm of Hg
[4]; Patient 1 Exfoliative Glaucoma of OD, OS, 5 hrs, pre-treatment 20
  IOP: 14 mm of Hg
[4]; Patient 2 Primary Open Angle Glaucoma, OD, 1 hr after one drop 0.4% solution, pre-treatment 34
  IOP: 30 mm of Hg
[4]; Patient 2 Primary Open Angle Glaucoma, OD, 3 hrs, pre-treatment 34
  IOP: 26 mm of Hg
[4]; Patient 2 Primary Open Angle Glaucoma, OD, 4 hrs, pre-treatment 34
  IOP: 22 mm of Hg
[4]; Patient 2 Primary Open Angle Glaucoma, OD, 5 hrs, pre-treatment 34
  IOP: 22 mm of Hg
[4]; Patient 2 Primary Open Angle Glaucoma, OS, 1 hr, pre-treatment 32
  IOP: 27 mm of Hg
[4]; Patient 2 Primary Open Angle Glaucoma, OS, 3 hrs, pre-treatment 32
  IOP: 22 mm of Hg
[4]; Patient 2 Primary Open Angle Glaucoma, OS, 4 hrs, pre-treatment 32
  IOP: 20 mm of Hg
[4]; Patient 2 Primary Open Angle Glaucoma, OS, 5 hrs, pre-treatment 32
  IOP: 20 mm of Hg
[4]; Patient 3 IOP Spike after Lens Extraction, OD, 2 hrs after one drop 0.4% solution, pre-treatment 30
  IOP: 20 mm of Hg
[4]
  effect on IOP: decreased IOP
[4]; listed as tolbutamide
  effect on IOP: decrease TOP significantly
[5]; 0.4% solution in 0.4% HPMC pH 6.7, one drop right eye
  IOP 1 hour post-treatment OD(treated): 22 mmHg and 17 mmHg
[5]; 0.4% suspension in NaCl/borate buffer, one drop right eye
  IOP 1 hour post-treatment OD(treated): 15 mmHg and 18 mmHg
[5]; cynomolgous monkeys, 500 μg, short-term 1-hour studies
  effect on IOP: decreased TOP
patients; all patients, any time during the study
  severe symptoms of ocular toxicity: free of severe symptoms
patients; drops to the eye, all cases
  symptoms of ocular toxicity, classification: 0-1
[2]; bovine TM cells, compared with RIN-m5F cells
  kinetics of displacement of 3H-glibenclamide by tolbutamide: same kinetics
Glaucoma patients; Patient 1 (high IOP, no visual field loss), 0.4% suspended in PBS pH 6.7, right eye twice daily, days 1-6, first day IOP remained high
  long-term effect on IOP: decreased significantly during the next 5 days
Glaucoma patients; Patient 2 (refractory to Timolol), 0.4% in PBS pH 6.7 twice daily, Day 1 6:00 PM, Day 1 4:00 PM value 31
  IOP OD (treated): 21 mm Hg
Glaucoma patients; Patient 2, 0.4% in PBS pH 6.7 twice daily, Day 1 6:00 PM
  IOP OD (treated) % Change: −32%
Glaucoma patients; [8]
  IOP OD (treated): 18 mm Hg
  IOP OD (treated) % Change: −42%
Glaucoma patients; [9]
  IOP OD (treated): 27 mm Hg
  IOP OD (treated) % Change: −13%
Glaucoma patients; [10]
  IOP OD (treated): 16 mm Hg
  IOP OD (treated) % Change: −48%
Glaucoma patients; [11]
  IOP OD (treated): 28 mm Hg
  IOP OD (treated) % Change: −10%
Glaucoma patients; [12]
  IOP OD (treated): 22 mm Hg
  IOP OD (treated) % Change: −29%
Glaucoma patients; [13]
  IOP OD (treated): 20 mm Hg
  IOP OD (treated) % Change: −35%
Glaucoma patients; [14]
  IOP OD (treated): 21 mm Hg
  IOP OD (treated) % Change: −32%
Glaucoma patients; [15]
  IOP OD (treated): 22 mm Hg
  IOP OD (treated) % Change: −29%
Glaucoma patients; [16]
  IOP OD (treated): 18 mm Hg
  IOP OD (treated) % Change: −42%
Glaucoma patients; [17]
  IOP OD (treated): 24 mm Hg
  IOP OD (treated) % Change: −23%
Glaucoma patients; [18]
  IOP OD (treated): 23 mm Hg
  IOP OD (treated) % Change: −26%
Glaucoma patients; [19]
  IOP OD (treated): 17 mm Hg
  IOP OD (treated) % Change: −45%
Glaucoma patients; glaucoma patients, 1 drop (250 μg) twice daily, 6 days of the study
  effect on IOP: decreased IOP
[6]
  kinetics of displacement of 3H-glibenclamide by tolbutamide: same kinetics

## CCCNC(=O)NS(=O)(=O)c1ccc(Cl)cc1 [chlorpropanamide]
rabbits
  effect on intraocular pressure: decreased IOP

## CC1=NS(=O)(=O)c2cc(Cl)ccc2N1 [diazoxide]
rabbits
  effect on intraocular pressure: increased IOP significantly

## Cc1ccc(S(=O)(=O)NC(=O)NN2CCCCCC2)cc1 [tolazamide]
rabbits
  effect on intraocular pressure: decreased IOP

From patent US11752117B2, “Methods and compositions for diagnosing and treating glaucoma” (priority 2017, dated 2023)
